# Assay results: patent US9795601B2, “Compositions and methods for cancer treatment” (BIOVISTA, INC., priority 2010, dated 2017)
# pIC50: −log10 of the molar value.
# Legend:
# Assay type in all cases: cell-based
# C32 (Melanoma) = assay: Cancer cell lines assay (Alamar Blue, day 5), C32; conditions: Homo sapiens, C32 cells
# Method: (§1) EXAMPLE. Cancer cell lines assay. Compounds are assayed for IC50 over a range of 50 nM to 1 mM, in triplicate, in standard 96-well plates. Initially, the number of cells in each line to plate on day 0 is determined, in order to have <80% confluency on day 5. Cells are plated on day 0. Cells are allowed to adhere 4 hours prior to adding the compound. On day 5 Alamar Blue is added to the media of the cells at 10% of the total volume of the well and incubated for approximately 4 hours at tissue culture conditions. The Alamar Blue reagent consists of an oxidation-reduction indicator that yields a colorimetric change and a fluorescent signal in response to metabolic activity. The dose response curves is evaluated in a BioTek Synergy 2 plate reader. The readout fluorescence values are then be exported to spreedsheet software, such as Microsoft Excel or GraphPad, and are graphed to show the reduction in relative cell number in response to compounds added to culture. Maximum inhibition is expressed as the maximum of:
# (§2) [formula] over all dosages tested for each drug.
# (§3) EXAMPLE. Linezolid is diluted in DMSO. One vial is thawed and administered on day 0, at concentrations 10 μM to 1 mM. Paclitaxel (0.1 μM) is used as a positive control. DMSO alone is used as a negative control. […]
# A172 (Malignant glioma) = assay: Cancer cell lines assay (Alamar Blue, day 5), A172; conditions: Homo sapiens
# Method: as §1, §2
# (§4) EXAMPLE. Linezolid is diluted in DMSO. One vial is thawed and administered on day 0, at concentrations 10 μM to 1 mM. Paclitaxel (0.1 μM) is used as a positive control. DMSO alone is used as a negative control. On day 5 Alamar Blue is added to the media of the cells at 10% of the total volume of the well and incubated for approximately 4 hours at tissue culture conditions.
# HT-144 (Melanoma) = assay: Cancer cell lines assay (Alamar Blue, day 5), HT-144; conditions: Homo sapiens
# Method: as §1, §2, §4
# SW-579 (Thyroid Cancer) = assay: Cancer cell lines assay (Alamar Blue, day 5), SW-579; conditions: SW579; SW-579 cells, Linezolid concentration 412 μM, negative control DMSO, p 0.0490; read-out: Linezolid % Maximum inhibition relative to negative control
# Method: as §1, §2, §3
"pIC50 (A172 (Malignant glioma); A 172, 120 h, A172 (Malignant glioma) cells, Alamar Blue on day 5, read-out: Linezolid IC50)","pIC50 (HT-144 (Melanoma); 120 h, HT-144 (Melanoma) cells, Alamar Blue on day 5, read-out: Linezolid IC50)",SMILES,"inhibition at 0.1 µM (C32 (Melanoma); 0.1 μM paclitaxel (positive control), read-out: Paclitaxel % Maximum inhibition relative to negative control)","inhibition at 0.1 µM (A172 (Malignant glioma); A 172, A172 cells, 0.1 μM paclitaxel (positive control), read-out: Paclitaxel % Maximum inhibition relative to negative control)","inhibition at 0.1 µM (HT-144 (Melanoma); HT-144 cells, 0.1 μM paclitaxel (positive control), read-out: Paclitaxel % Maximum inhibition relative to negative control)","inhibition at 1000 µM (C32 (Melanoma); Linezolid concentration 1 mM, negative control DMSO, p 0.000720, read-out: Linezolid % Maximum inhibition relative to negative control)","inhibition at 1000 µM (A172 (Malignant glioma); A 172, A172 cells, Linezolid concentration 1 mM, negative control DMSO, p 6 × 10^−6, read-out: Linezolid % Maximum inhibition relative to negative control)","inhibition at 1000 µM (HT-144 (Melanoma); HT-144 cells, Linezolid concentration 1 mM, negative control DMSO, p 0.00250, read-out: Linezolid % Maximum inhibition relative to negative control)",inhibition at 412 µM (SW-579 (Thyroid Cancer))
,,CC(=O)O[C@H]1C(=O)[C@@]2(C)[C@H]([C@H](OC(=O)c3ccccc3)[C@]3(O)C[C@H](OC(=O)[C@H](O)[C@@H](NC(=O)c4ccccc4)c4ccccc4)C(C)=C1C3(C)C)[C@]1(OC(C)=O)CO[C@@H]1C[C@@H]2O [Paclitaxel],90.8%,92.9%,86.9%,,,,
3.15 to 3.22,3.30,CC(=O)NC[C@H]1CN(c2ccc(N3CCOCC3)c(F)c2)C(=O)O1 [Linezolid],,,,26.1%,81.8%,90.7%,14.5%
